# Assay results taken from patent publication US8722849B2, “Polypeptides” (Novo Nordisk A/S, priority 2011, dated 2014).
# Starred links: 1 amine or outer side, 2 acyl side, 3 side chain; linkers in the order of their positions; H or OH if unused. Positions of bridges follow the written chain, without caps; N, C: chain ends. Residues, ends and D or L forms follow the SMILES beside them. *: point of attachment. C20 diacid = O=C(O)CCCCCCCCCCCCCCCCCCC(=O)*; C18 diacid = O=C(O)CCCCCCCCCCCCCCCCC(=O)*; γGlu = O=C(O)[C@H](CCC(=O)[*:2])N[*:1]
# Key:
# Assay type in all cases: cell-based
# [1] = molecular target: T1, rat amylin 3(a) receptor (rat calcitonin(a) receptor + rat RAMP3) (Rattus norvegicus, UniProt P32214+Q9JJ73); assay: Assay (II)b functional cAMP FlashPlate assay, rat amylin receptor; conditions: Table 11
# T1 construct: expressed in transfected cells; host or cells: BHK tk'ts 13
# T1 sequence (P32214 25-479 isoform P32214-2 limits assumed): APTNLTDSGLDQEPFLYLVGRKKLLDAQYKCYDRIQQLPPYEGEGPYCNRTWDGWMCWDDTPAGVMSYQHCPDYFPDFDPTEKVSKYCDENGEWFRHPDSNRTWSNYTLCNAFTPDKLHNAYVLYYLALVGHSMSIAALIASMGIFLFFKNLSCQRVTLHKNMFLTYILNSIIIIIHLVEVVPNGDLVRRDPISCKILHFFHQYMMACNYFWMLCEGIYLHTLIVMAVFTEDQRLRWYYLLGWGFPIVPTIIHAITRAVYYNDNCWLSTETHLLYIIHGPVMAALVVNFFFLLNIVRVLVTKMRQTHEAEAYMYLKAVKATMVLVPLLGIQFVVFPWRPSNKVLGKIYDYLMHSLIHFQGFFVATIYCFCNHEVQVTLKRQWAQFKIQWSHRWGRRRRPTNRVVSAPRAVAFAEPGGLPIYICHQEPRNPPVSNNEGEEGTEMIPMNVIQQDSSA
# T1 sequence (Q9JJ73 23-147 partner): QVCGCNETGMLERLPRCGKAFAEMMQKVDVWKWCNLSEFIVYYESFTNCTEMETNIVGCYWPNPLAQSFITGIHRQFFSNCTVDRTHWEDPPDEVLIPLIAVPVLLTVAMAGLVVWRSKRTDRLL
# Procedure, shortened: (§1)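 cAMP accumulation in transiently transfected BHK tk'ts 13 cells, 100.000 cells/well, expressing rat calcitonin(a) receptor or its RAMP3 co-expression form (amylin 3(a)): 30 min stimulation with IBMX, 24 hours post-transfection. Readout by competition of cellular versus radiolabelled cAMP in FlashPlates, scintillation counted after 3 h.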
# [2] = molecular target: T2, rat calcitonin (a) receptor (Rattus norvegicus, UniProt P32214); assay: Assay (II)b functional cAMP FlashPlate assay, rat calcitonin receptor; conditions: Table 11; read-out: CTa receptor rat EC50
# T2 construct: expressed in transfected cells; host or cells: BHK tk'ts 13
# T2 sequence (P32214 25-479 isoform P32214-2 limits assumed): T1 sequence (P32214 25-479 isoform P32214-2 limits assumed)
# Procedure, shortened: as §1
# [3] = molecular target: T3, human calcitonin receptor (Homo sapiens, UniProt P30988); assay: Assay (II)a functional CRE-luciferase assay, human calcitonin receptor; conditions: Table 7; human calcitonin (CTa) receptor
# T3 construct: expressed in transfected cells; host or cells: BHK570
# T3 sequence (P30988 25-474): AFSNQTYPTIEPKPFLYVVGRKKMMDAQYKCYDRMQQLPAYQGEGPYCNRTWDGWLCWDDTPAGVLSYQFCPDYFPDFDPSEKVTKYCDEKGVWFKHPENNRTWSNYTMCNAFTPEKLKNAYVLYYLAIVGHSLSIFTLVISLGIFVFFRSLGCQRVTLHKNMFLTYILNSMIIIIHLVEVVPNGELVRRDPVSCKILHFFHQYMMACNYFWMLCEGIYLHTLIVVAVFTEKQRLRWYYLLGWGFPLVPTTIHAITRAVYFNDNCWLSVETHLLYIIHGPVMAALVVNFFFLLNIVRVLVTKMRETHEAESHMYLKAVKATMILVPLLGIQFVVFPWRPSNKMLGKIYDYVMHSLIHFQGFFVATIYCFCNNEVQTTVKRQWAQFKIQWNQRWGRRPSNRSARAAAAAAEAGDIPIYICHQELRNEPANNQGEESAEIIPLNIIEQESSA
EC50 [1] [nM],EC50 [2] [nM],EC50 [3] [nM],SMILES
0.224,1.04,0.0855,"CC[C@H](C)[C@H](NC(=O)[C@@H]1CCCN1C(=O)CNC(=O)[C@H](Cc1ccccc1)NC(=O)[C@H](CC(N)=O)NC(=O)[C@H](CC(N)=O)NC(=O)[C@H](CO)NC(=O)[C@H](CO)NC(=O)[C@H](Cc1c[nH]cn1)NC(=O)[C@H](Cc1c[nH]cn1)NC(=O)[C@H](CC(C)C)NC(=O)[C@H](Cc1ccccc1)NC(=O)[C@H](CCC(=O)O)NC(=O)[C@H](C)NC(=O)[C@H](CC(C)C)NC(=O)[C@H](CCCNC(=N)N)NC(=O)[C@H](CCC(N)=O)NC(=O)[C@@H](NC(=O)[C@H](C)NC(=O)[C@@H]1CSSC[C@H](NC(=O)[C@H](Cc2c[nH]cn2)NC(=O)CC[C@H](NC(=O)CCCCCCCCCCCCCCCCCCC(=O)O)C(=O)O)C(=O)N[C@@H](CC(N)=O)C(=O)N[C@@H]([C@@H](C)O)C(=O)N[C@@H](C)C(=O)N[C@@H]([C@@H](C)O)C(=O)N1)[C@@H](C)O)C(=O)N[C@@H](CC(C)C)C(=O)N1CCC[C@H]1C(=O)N1CCC[C@H]1C(=O)N[C@H](C(=O)N[C@@H](CC(N)=O)C(=O)N[C@H](C(=O)NCC(=O)N[C@@H](CO)C(=O)N[C@@H](Cc1c[nH]cn1)C(=O)N[C@H](C(=O)N[C@@H](Cc1ccc(O)cc1)C(N)=O)[C@@H](C)O)C(C)C)[C@@H](C)O [Example 76, N-alpha-[(S)-4-Carboxy-4-(19-carboxynonadecanoylamino)butyryl]-[His1,Glu14,His17,His35]-pramlintide] ({C20 diacid-γGlu}-HCNTATCATQRLAEFLHHSSNNFGPILPPTNVGSHTY-NH2; disulfide 2-7 (inferred); C-terminus assumed)"
0.187,1.17,0.126,"CC[C@H](C)[C@H](NC(=O)[C@@H]1CCCN1C(=O)CNC(=O)[C@H](Cc1ccccc1)NC(=O)[C@H](CC(N)=O)NC(=O)[C@H](CC(N)=O)NC(=O)[C@H](CO)NC(=O)[C@H](CO)NC(=O)[C@H](Cc1c[nH]cn1)NC(=O)[C@H](Cc1c[nH]cn1)NC(=O)[C@H](CC(C)C)NC(=O)[C@H](Cc1ccccc1)NC(=O)[C@H](CCC(=O)O)NC(=O)[C@H](C)NC(=O)[C@H](CC(C)C)NC(=O)[C@H](CCCNC(=N)N)NC(=O)[C@H](CCC(N)=O)NC(=O)[C@@H](NC(=O)[C@H](C)NC(=O)[C@@H]1CSSC[C@H](NC(=O)[C@H](Cc2c[nH]cn2)NC(=O)CC[C@H](NC(=O)CCCCCCCCCCCCCCCCCCC(=O)O)C(=O)O)C(=O)N[C@@H](CC(N)=O)C(=O)N[C@@H]([C@@H](C)O)C(=O)N[C@@H](C)C(=O)N[C@@H]([C@@H](C)O)C(=O)N1)[C@@H](C)O)C(=O)N[C@@H](CC(C)C)C(=O)N1CCC[C@H]1C(=O)N1CCC[C@H]1C(=O)N[C@H](C(=O)N[C@@H](CC(N)=O)C(=O)N[C@H](C(=O)NCC(=O)N[C@@H](CO)C(=O)N[C@@H](CC(N)=O)C(=O)N[C@H](C(=O)N[C@@H](Cc1ccc(O)cc1)C(N)=O)[C@@H](C)O)C(C)C)[C@@H](C)O [Example 18, N-alpha-[(S)-4-Carboxy-4-(19-carboxynonadecanoylamino)butyryl]-[His1,Glu14,His17]-pramlintide] ({C20 diacid-γGlu}-HCNTATCATQRLAEFLHHSSNNFGPILPPTNVGSNTY-NH2; disulfide 2-7 (inferred); C-terminus assumed)"
0.281,17.6,1.07,"CC[C@H](C)[C@H](NC(=O)[C@@H]1CCCN1C(=O)CNC(=O)[C@H](Cc1ccccc1)NC(=O)[C@H](CC(N)=O)NC(=O)[C@H](CC(N)=O)NC(=O)[C@H](CO)NC(=O)[C@H](CO)NC(=O)[C@H](Cc1c[nH]cn1)NC(=O)[C@H](CCCNC(=N)N)NC(=O)[C@H](CC(C)C)NC(=O)[C@H](Cc1ccccc1)NC(=O)[C@H](CCC(=O)O)NC(=O)[C@H](C)NC(=O)[C@H](CC(C)C)NC(=O)[C@H](CCCNC(=N)N)NC(=O)[C@H](CCC(N)=O)NC(=O)[C@@H](NC(=O)[C@H](C)NC(=O)[C@@H]1CSSC[C@H](NC(=O)[C@H](CCCCN)NC(=O)[C@H](CCC(=O)O)NC(=O)CC[C@H](NC(=O)CCCCCCCCCCCCCCCCC(=O)O)C(=O)O)C(=O)N[C@@H](CC(N)=O)C(=O)N[C@@H]([C@@H](C)O)C(=O)N[C@@H](C)C(=O)N[C@@H]([C@@H](C)O)C(=O)N1)[C@@H](C)O)C(=O)N[C@@H](CC(C)C)C(=O)N1CCC[C@H]1C(=O)N1CCC[C@H]1C(=O)N[C@H](C(=O)N[C@@H](CC(N)=O)C(=O)N[C@H](C(=O)NCC(=O)N[C@@H](CO)C(=O)N[C@@H](Cc1c[nH]cn1)C(=O)N[C@H](C(=O)N[C@@H](Cc1ccc(O)cc1)C(N)=O)[C@@H](C)O)C(C)C)[C@@H](C)O [Example 62, N-alpha-[(S)-4-Carboxy-4-(17-carboxyheptadecanoylamino)butyryl]-Glu-[Glu14,Arg17,His35]-pramlintide] ({C18 diacid-γGlu}-EKCNTATCATQRLAEFLRHSSNNFGPILPPTNVGSHTY-NH2; disulfide 3-8 (inferred); C-terminus assumed)"
